US6518295B1, “Utilization of aryl(or heteroaryl)azolylcarbinol derivatives in the preparation of a medicament for the treatment of troubles mediated by an excess of substance P” (Laboratorios del Dr. Esteve, S.A., priority 1998, dated 2003)
Read-outs that look alike come from different tables or passages of the source.

Experiments:
Format in all cases: in vivo
[1] = test system: intrathecal release of substance P; assay: Effect on the spinal release of substance P in rats (intrathecal perfusion)
Description: Effect on the Spinal Release of Substance P in Rats:
The study was carried out in vivo, in rats anaesthetised with halothane. The trial consisted of intrathecal perfusion with an artificial cerebrospinal fluid, with a view to collecting the peptides released from the superficial layers of the spinal cord while the product under study is administered locally or systematically. The method used was that described by Collin, E. and co-workers (Naunyn-Schmiedeberg's Arch. Pharmacol., 1994, 349, 387-393).
The activity of the (±)-5-{α-[2-(dimethylamino)ethoxy] benzyl}-1-methyl-1H-pyrazol citrate (example 191) was studied, administered intrathecally in the perfusion liquid, at a concentration of 1 μM.
It is of note that the effect of the systematic administration of product on the intrathecal release of substance P lasted 2 hours, the average inhibition being 50% of the effect during this period.

[2] = test system: ptosis induced by reserpine; assay: Inhibition of ptosis induced by reserpine in mice
Description: (§1) In one the inhibition of ptosis induced by reserpine was studied, and in the other the effect on mobility in adverse situation was investigated.
2.1 Inhibition of Ptosis Induced by Reserpine in Mice:
The method used was that described by S.Garattini and co-workers (Med. Exp., 1960, 3, 315-320). The trial consists of observing the possible inhibition of ptosis induced by reserpine ([…], ip: intraperitoneal) in mice, after the products under study had been administered orally.
The activity of the (±)-5-{α-[2-(dimethylamino)ethoxy] benzyl}-1-methyl-1H-pyrazol citrate (example 191) administered orally at different doses has been determined.

[3] = test system: immobility time in adverse situation; assay: Effect on mobility in adverse situation (mice suspended by their tails, ITEMATIC-TST)
Source text: as §1
2.2 Effect on Mobility in Adverse Situation:
The method used was described by R. D. Porsolt and co-workers (Arch. Int. Pharmacodyn., 1987, 288, 11-30). The trial consists of suspending the mice by their tales for six minutes in an ITEMATIC-TST apparatus, which measures the mobility and the strength of the animals' movements. The animals exposed to this adverse situation, after a start with vigorous activity, become desperate and end up staying still.

Q: `CN(C)CCOC(c1ccccc1)c1ccnn1C.O=C(O)CC(O)(CC(=O)O)C(=O)O` (racemic) [Example 191, (±)-5-{α-[2-(dimethylamino)ethoxy]benzyl}-1-methyl-1H-pyrazol citrate] was tested. Which inhibition at 1 µM ([1]; Rattus norvegicus, central, 1 μM, intrathecal, in the perfusion liquid, rats anaesthetised with halothane, read-out: % Inhibition, with respect to control, of intrathecal release of substance P) did it give?
A: Its inhibition at 1 µM is 58%.

Q: What about the inhibition at 46 mg/kg ([1]; Rattus norvegicus, central, systematic administration (46 mg/kg), average during the 2 hours, read-out: average inhibition of intrathecal release of substance P) of the same compound?
A: Its inhibition at 46 mg/kg is 50%.

Q: What about the inhibition at 46 mg/kg ([1]; Rattus norvegicus, 46 mg/kg, ip, rats anaesthetised with halothane, read-out: % Inhibition, with respect to control, of intrathecal release of substance P) of the same compound?
A: The inhibition at 46 mg/kg was 50%.

Q: And the “effect on release of substance P” value ([1]; intrathecally in the perfusion liquid, 1 μM)?
A: The value was “inhibited the release of substance P”.

Q: And the “duration of the effect on the intrathecal release of substance P” value ([1]; systematic administration (46 mg/kg))?
A: Its value is 2 h.

Q: What about the “effect on release of substance P” value ([1]; systematic administration of 46 mg/kg) of the same compound?
A: Its value is “reduced the release of substance P”.

Q: What about the inhibition at 12 mg/kg ([2]; Mus musculus, 12 mg/kg, oral (dose as base)) of the same compound?
A: The inhibition at 12 mg/kg was 8%.

Q: And the inhibition at 23 mg/kg ([2]; Mus musculus, 23 mg/kg, oral (dose as base))?
A: The inhibition at 23 mg/kg was 30%.

Q: What about the inhibition at 80 mg/kg ([2]; Mus musculus, 80 mg/kg, oral (dose as base)) of the same compound?
A: The inhibition at 80 mg/kg was 75%.

Q: And the inhibition at 92 mg/kg ([2]; Mus musculus, 92 mg/kg, oral (dose as base))?
A: The inhibition at 92 mg/kg was 84%.

Q: And the “anti-depressive activity, inhibition of the effects of reserpine” value ([2]; oral, different doses)?
A: The value was “clear anti-depressive activity inhibiting the effects of reserpine with a good dose-response”.

Q: And the SD-50 ([2]; oral, inhibition of ptosis induced by reserpine)?
A: The SD-50 was 38.5 mg/kg, oral.

Q: And the inhibition at 12 mg/kg ([3]; Mus musculus, mice, dose 12 mg/kg, oral)?
A: Its inhibition at 12 mg/kg is 20%.

Q: What about the inhibition at 23 mg/kg ([3]; Mus musculus, mice, dose 23 mg/kg, oral) of the same compound?
A: The inhibition at 23 mg/kg was 30%.

Q: What about the inhibition at 46 mg/kg ([3]; Mus musculus, mice, dose 46 mg/kg, oral) of the same compound?
A: Its inhibition at 46 mg/kg is 41%.

Q: What about the inhibition at 92 mg/kg ([3]; Mus musculus, mice, dose 92 mg/kg, oral) of the same compound?
A: Its inhibition at 92 mg/kg is 69%.

Q: And the “effect on the immobility period” value ([3]; mice suspended by their tails for six minutes)?
A: Its value is “reducing the immobility period significantly and in a dose-dependent fashion”.

Q: What about the “DE-50 (inhibition of immobility time in adverse situation)” value ([3]; mice, oral) of the same compound?
A: Its value is 50.5 mg/kg, oral.
